From patent US20240150293A1, “SPIROCYCLOHEXANE DERIVATIVES, PHARMACEUTICAL COMPOSITIONS CONTAINING THEM AND THEIR USES AS ANTI-APOPTOTIC INHIBITORS” (LES LABORATOIRES SERVIER, priority 2021, published 2024)
Read-outs that look alike come from different tables or passages of the source.

Assays:
NCI-H929 cell lines = assay: In vitro cytotoxicity, CellTiter-Glo (CTG) assay (Example B, Method B); type: cell-based; conditions: NCI-H929 cells, 48 h incubation, read-out: C50
Summary of the method: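 NCI-H929 cells exposed to an 11-point compound series from 10 mM DMSO stocks (top final 30 μM) for 48 h at 37° C., 5% CO2. Viability measured as ATP by CellTiter-Glo luminescence; C50 is the concentration giving 50% cellular viability.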

[1] = target: Cy5-labelled Mcl1 (amino acids 171-321) C286S protein (UniProtKB Q07820) (Homo sapiens (Human), UniProt Q07820, C286S); assay: Inhibition of Mcl-1 by the fluorescence quenching assay (Example A, Method B); type: binding
Sequence of Cy5-labelled Mcl1 (amino acids 171-321) C286S protein (Q07820 171-321 C286S): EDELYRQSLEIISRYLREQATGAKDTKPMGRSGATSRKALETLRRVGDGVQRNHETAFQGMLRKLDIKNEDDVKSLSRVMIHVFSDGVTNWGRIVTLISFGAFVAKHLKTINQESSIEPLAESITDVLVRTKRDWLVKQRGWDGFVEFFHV
Summary of the method: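 Cy5-labelled Mcl1 171-321 C286S (1 nM) quenched by TQ5WS-labelled PUMA peptide (10, 20 or 400 nM); displacement raises fluorescence (Ex 620/Em 680 nm). Buffer 10 mM HEPES, 150 mM NaCl, 0.05% Tween 20, pH 7.4, 5% DMSO; 2 h at room temperature, 11-point curves, IC50 converted to Ki (cKi/eKi).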

Ki [1]	Ki ([1]; Ki determined from IC50)	SMILES	IC50 (NCI-H929 cell lines; Homo sapiens, NCI-H929, 48 h)	IC50 (NCI-H929 cell lines)
5.46 nM	–	C[C@@H](COc1ccnc2c1[C@H](C)CCC2)C[C@H]1Cc2cc3c(cc2[C@]12CC[C@@](Nc1cccc(Cl)c1)(C(=O)OCCN(C)C)CC2)OCO3 [Example 935, 2-(dimethylamino)ethyl (1r,4S,6′S)-4-(3-chloroanilino)-6′-[(2R)-2-methyl-3-{[(5R)-5-methyl-5,6,7,8-tetrahydroquinolin-4-yl]oxy}propyl]-6′,7′-dihydro-2′H-spiro[cyclohexane-1,5′-indeno[5,6-d][1,3]dioxole]-4-carboxylate]	1900 nM	–
0.0109 nM	–	C[C@@H](COc1ccnc2c1[C@H](C)CC[C@H]2O)C[C@H]1Cc2cc3c(cc2[C@]12CC[C@@](Nc1cccc(Cl)c1)(C(=O)O)CC2)OCCO3 [Example 962, (1r,4S,7′S)-4-(3-chloroanilino)-7′-[(2R)-3-{[(5R,8R)-8-hydroxy-5-methyl-5,6,7,8-tetrahydroquinolin-4-yl]oxy}-2-methylpropyl]-2′,3′,7′,8′-tetrahydrospiro[cyclohexane-1,6′-indeno[5,6-b][1,4]dioxine]-4-carboxylic acid]	42.8 nM	–
–	104 nM	C[C@@H](COc1ccnc2c1[C@H](C)CCC2)CN1Cc2cc3c(cc2[C@]12CC[C@](Nc1ccc(F)c(Cl)c1)(C(=O)O)CC2)OCO3 [Example 48, (1r,4R)-4-(3-chloro-4-fluoroanilino)-6′-[(2R)-2-methyl-3-{[(5R)-5-methyl-5,6,7,8-tetrahydroquinolin-4-yl]oxy}propyl]-6′,7′-dihydro-2′H-spiro[cyclohexane-1,5′-[1,3]dioxolo[4,5-f]isoindole]-4-carboxylic acid]	21500 nM	–
1.23 nM	–	C[C@@H](COc1ccnc2c1[C@H](C)CCC2)C[C@@H]1Cc2ccc(-c3ccc[nH]3)cc2[C@]12CC[C@@](Nc1cccc(Cl)c1)(C(=O)O)CC2 [Example 880, (1r,2′R,4R)-4-(3-chloroanilino)-2′-[(2R)-2-methyl-3-{[(5R)-5-methyl-5,6,7,8-tetrahydroquinolin-4-yl]oxy}propyl]-6′-(1H-pyrrol-2-yl)-2′,3′-dihydrospiro[cyclohexane-1,1′-indene]-4-carboxylic acid]	829 nM	–
0.0256 nM	–	C[C@@H](COc1ccnc2c1[C@H](C)CCC2)C[C@H]1Cc2cc3c(cc2[C@]12CC[C@@](Nc1cccc(Cl)c1)(C(=O)O)CC2)CCO3 [Example 851, (1r,4S,6′S)-4-(3-chloroanilino)-6′-[(2R)-2-methyl-3-{[(5R)-5-methyl-5,6,7,8-tetrahydroquinolin-4-yl]oxy}propyl]-2′,3′,6′,7′-tetrahydrospiro[cyclohexane-1,5′-indeno[5,6-b]furan]-4-carboxylic acid]	34.9 nM	–
0.321 nM	–	C[C@@H](COc1ccnc2c1[C@H](C)CCC2)CC1Cc2c(Cl)c(Cl)ccc2[C@]12CC[C@@](Nc1cccc(Cl)c1)(C(=O)O)CC2 (single isomer, unassigned) [Example 752]	–	344 nM
0.0342 nM	–	C[C@@H](COc1ccnc2c1[C@H](C)CCC2)C[C@H]1Cc2cc3c(cc2[C@]12CC[C@@](Nc1cccc(Cl)c1)(C(=O)O)CC2)OCC[C@@H](C)O3 [Example 986, (1r,2′R,4S,8′S)-4-(3-chloroanilino)-2′-methyl-8′-[(2R)-2-methyl-3-{[(5R)-5-methyl-5,6,7,8-tetrahydroquinolin-4-yl]oxy}propyl]-3′,4′,8′,9′-tetrahydro-2′H-spiro[cyclohexane-1,7′-indeno[5,6-b][1,4]dioxepine]-4-carboxylic acid]	86.9 nM	–
0.0575 nM	–	CCCC1COc2cc3c(cc2OC1)[C@]1(CC[C@@](Nc2cccc(Cl)c2)(C(=O)O)CC1)[C@@H](C[C@@H](C)COc1ccnc2c1[C@H](C)CCC2)C3 (single isomer, unassigned) [Example 990]	–	353 nM
0.371 nM	–	C[C@@H](COc1ccnc2c1[C@H](C)CCC2)C[C@H]1Cc2cc3c(cc2[C@]12CC[C@@](Nc1cccc(Cl)c1)(C(=O)OCOP(=O)(O)O)CC2)OCO3 [Example 952, (phosphonooxy)methyl (1r,4S,6′S)-4-(3-chloroanilino)-6′-[(2R)-2-methyl-3-{[(5R)-5-methyl-5,6,7,8-tetrahydroquinolin-4-yl]oxy}propyl]-6′,7′-dihydro-2′H-spiro[cyclohexane-1,5′-indeno[5,6-d][1,3]dioxole]-4-carboxylate]	96 nM	–
0.0831 nM	–	CC[C@H]1COc2cc3c(cc2O1)C[C@H](C[C@@H](C)COc1ccnc2c1[C@H](C)CCC2)[C@]31CC[C@](Nc2cccc(Cl)c2)(C(=O)O)CC1 [Example 978, (1r,2′S,4S,7′S)-4-(3-chloroanilino)-2′-ethyl-7′-[(2R)-2-methyl-3-{[(5R)-5-methyl-5,6,7,8-tetrahydroquinolin-4-yl]oxy}propyl]-2′,3′,7′,8′-tetrahydrospiro[cyclohexane-1,6′-indeno[5,6-b][1,4]dioxine]-4-carboxylic acid]	164 nM	–
0.0231 nM	–	CC[C@H]1COc2cc3c(cc2O1)[C@]1(CC[C@@](Nc2cccc(Cl)c2)(C(=O)O)CC1)[C@@H](C[C@@H](C)COc1ccnc2c1[C@H](C)CCC2)C3 [Example 977, (1r,3'S,4S,7′S)-4-(3-chloroanilino)-3′-ethyl-7′-[(2R)-2-methyl-3-{[(5R)-5-methyl-5,6,7,8-tetrahydroquinolin-4-yl]oxy}propyl]-2′,3′,7′,8′-tetrahydrospiro[cyclohexane-1,6′-indeno[5,6-b][1,4]dioxine]-4-carboxylic acid]	56 nM	–
–	0.104 nM	Cc1ccc2c(c1)CN(C[C@@H](C)COc1ccnc3c1[C@H](C)CCC3)[C@]21CC[C@](Nc2cccc(Cl)c2)(C(=O)O)CC1 [Example 55, (1s,4S)-4-(3-chloroanilino)-5′-methyl-2′-[(2R)-2-methyl-3-{[(5R)-5-methyl-5,6,7,8-tetrahydroquinolin-4-yl]oxy}propyl]-2′,3′-dihydrospiro[cyclohexane-1,1′-isoindole]-4-carboxylic acid]	181 nM	–
0.256 nM	–	COCCNC(=O)OC(C)OC(=O)[C@]1(Nc2cccc(Cl)c2)CC[C@@]2(CC1)c1cc3c(cc1C[C@@H]2C[C@@H](C)COc1ccnc2c1[C@H](C)CCC2)OCO3 (stereo partly drawn) [Example 947, 1-{[(2-methoxyethyl)carbamoyl]oxy}ethyl (1r,4S,6′S)-4-(3-chloroanilino)-6′-[(2R)-2-methyl-3-{[(5R)-5-methyl-5,6,7,8-tetrahydroquinolin-4-yl]oxy}propyl]-6′,7′-dihydro-2′H-spiro[cyclohexane-1,5′-indeno[5,6-d][1,3]dioxole]-4-carboxylate]	604 nM	–
0.0405 nM	–	CCC1Oc2cc3c(cc2O1)[C@]1(CC[C@@](Nc2cccc(Cl)c2)(C(=O)O)CC1)[C@@H](C[C@@H](C)COc1ccnc2c1[C@H](C)CCC2)C3 (single isomer, unassigned) [Example 968]	–	72.7 nM
0.0323 nM	–	CCC1COc2cc3c(cc2OC1)[C@]1(CC[C@@](Nc2cccc(Cl)c2)(C(=O)O)CC1)[C@@H](C[C@@H](C)COc1ccnc2c1[C@H](C)CCC2)C3 (single isomer, unassigned) [Example 988]	–	204 nM
3.94 nM	–	COCC(=O)OC(C)OC(=O)[C@]1(Nc2cccc(Cl)c2)CC[C@@]2(CC1)c1cc3c(cc1C[C@@H]2C[C@@H](C)COc1ccnc2c1[C@H](C)CCC2)OCO3 (stereo partly drawn) [Example 941, 1-[(methoxyacetyl)oxy]ethyl (1r,4S,6′S)-4-(3-chloroanilino)-6′-[(2R)-2-methyl-3-{[(5R)-5-methyl-5,6,7,8-tetrahydroquinolin-4-yl]oxy}propyl]-6′,7′-dihydro-2′H-spiro[cyclohexane-1,5′-indeno[5,6-d][1,3]dioxole]-4-carboxylate]	46.2 nM	–
0.241 nM	–	CC(C)COc1ccc2c(c1)[C@]1(CC[C@@](Nc3cccc(Cl)c3)(C(=O)O)CC1)[C@@H](C[C@@H](C)COc1ccnc3c1[C@H](C)CCC3)C2 [Example 788, (1r,2′S,4S)-4-(3-chloroanilino)-2′-[(2R)-2-methyl-3-{[(5R)-5-methyl-5,6,7,8-tetrahydroquinolin-4-yl]oxy}propyl]-6′-(2-methylpropoxy)-2′,3′-dihydrospiro[cyclohexane-1,1′-indene]-4-carboxylic acid]	262 nM	–
0.0343 nM	–	C[C@@H](COc1ccnc2c1[C@H](C)CCC2)C[C@H]1Cc2cc3c(cc2[C@]12CC[C@@](Nc1cccc(Cl)c1)(C(=O)O)CC2)OC(C)(C)O3 [Example 848, (1r,4S,6′S)-4-(3-chloroanilino)-2′,2′-dimethyl-6′-[(2R)-2-methyl-3-{[(5R)-5-methyl-5,6,7,8-tetrahydroquinolin-4-yl]oxy}propyl]-6′,7′-dihydro-2′H-spiro[cyclohexane-1,5′-indeno[5,6-d][1,3]dioxole]-4-carboxylic acid]	48.6 nM	–
–	0.981 nM	C[C@@H](COc1ccnc2c1[C@H](C)CCC2)CN1Cc2ccccc2[C@]12CC[C@@](Nc1cccc(Cl)c1)(C(=O)O)CC2 [Example 40, (1s,4S)-4-(3-chloroanilino)-2′-[(2R)-2-methyl-3-{[(5R)-5-methyl-5,6,7,8-tetrahydroquinolin-4-yl]oxy}propyl]-2′,3′-dihydrospiro[cyclohexane-1,1′-isoindole]-4-carboxylic acid]	280 nM	–
